The assay has as its target β2-adrenergic receptor (β2AR) (Homo sapiens, UniProt P07550). Kind of assay: radioligand saturation binding on membranes.

Broadly, the Kd is the constant that tells how readily two partners part at equilibrium. A higher Kd goes with weaker binding.

Chain of β2-adrenergic receptor (β2AR) (P07550 whole entry): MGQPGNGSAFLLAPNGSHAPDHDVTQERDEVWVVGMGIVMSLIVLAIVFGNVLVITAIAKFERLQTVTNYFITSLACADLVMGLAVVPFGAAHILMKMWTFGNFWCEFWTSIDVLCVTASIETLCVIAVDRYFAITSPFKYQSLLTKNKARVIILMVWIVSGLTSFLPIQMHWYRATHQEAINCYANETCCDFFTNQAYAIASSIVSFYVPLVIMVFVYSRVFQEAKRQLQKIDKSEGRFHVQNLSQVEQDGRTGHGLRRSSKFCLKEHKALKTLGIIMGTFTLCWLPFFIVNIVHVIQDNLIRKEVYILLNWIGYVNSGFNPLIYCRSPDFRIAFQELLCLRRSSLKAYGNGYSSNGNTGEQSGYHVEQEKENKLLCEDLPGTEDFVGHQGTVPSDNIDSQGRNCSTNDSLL

For `CCCc1ccccc1OCC(O)CNC(C)C` (stereo not shown) [[3H]dihydroalprenolol], the Kd stood at 420 ± 100 pM.

Source of the values: article PMC317295 (BMC Pharmacology, 2003).
